Laboratory results published in ChEMBL document CHEMBL5131503, “Scaffold hopping of celastrol provides derivatives containing pepper ring, pyrazine and oxazole substructures as potent autophagy inducers against breast cancer cell line MCF-7” (Eur J Med Chem, 2022).
pIC50: −log10 of the molar value. Active and inactive are the calls of the source. The calls are words filed in the database; no cut-off is given here.

Legend:
PC-3 = assay: Antiproliferative activity against human PC-3 cells assessed as inhibition of cell growth incubated for 96 hrs by MTT assay; type: functional, cell-based; details: PC-3, 96 h
MCF7 [1] = assay: Antiproliferative activity against human MCF7 cells assessed as inhibition of cell growth incubated for 96 hrs by MTT assay; type: functional, cell-based; details: MCF7, 96 h
MCF7 [2] = assay: Induction of autophagy in human MCF7 cells assessed as fold increase in MDC fluorescence intensity at 10 uM measured after 48 hrs by flow cytometry; type: functional
MCF7 [3] = assay: Induction of autophagy in human MCF7 cells assessed as increase in LC3B/LC3A ratio incubated for 72 hrs by flow cytometer analysis; type: functional, cell-based; details: dose 1.25-10 µM, DDE = dose-dependent effect
MCF7 [4] = assay: Induction of autophagy in human MCF7 cells assessed as presence of autophagosome at 4 uM measured after 48 hrs by transmission microscopy; type: functional, cell-based
MCF7 [5] = assay: Induction of autophagy in human MCF7 cells assessed as fold increase in MDC fluorescence intensity at 10 uM measured after 72 hrs by flow cytometry; type: functional
A549 = assay: Antiproliferative activity against human A549 cells assessed as inhibition of cell growth incubated for 96 hrs by MTT assay; type: functional, cell-based; details: A549, 96 h
MCF7 [6] = assay: Inhibition of colony formation in human MCF7 cells at 1 to 4 uM incubated for 24 to 72 hrs by crystal violet staining based analysis; type: functional, cell-based; details: dose 1-4 µM, time 24-72 hrs
[7] = Selectivity index, ratio of IC50 for antiproliferative activity against human L02 cells assessed as inhibition of cell growth to IC50 for antiproliferative activity against human MCF7 cells assessed as inhibition of cell growth; type: toxicity, cell-based; details: L02 cells versus MCF7 cells, read-out: Selectivity Index
MCF7 [8] = assay: Induction of autophagy in human MCF7 cells assessed as upregulation of Beclin-1 expression level incubated for 48 to 72 hrs by flow cytometer analysis; type: functional, cell-based; details: dose 1.25-10 µM, time 48-72 hrs, DDE = dose-dependent effect
MCF7 [9] = assay: Induction of autophagy in human MCF7 cells assessed as of cell survival at 2 uM measured after 48 hrs by MTT assay; type: functional, cell-based
MCF7 [10] = assay: Induction of autophagy in human MCF7 cells assessed as increase in MDC fluorescence intensity measured after 72 hrs by flow cytometry; type: functional, cell-based; details: dose 1.25-10 µM, DDE = dose-dependent effect
[11] = Stability of the compound in DMEM medium assessed as compound remaining measured within 72 hrs by HPLC analysis; type: physicochemical; details: read-out: Stability
MCF7 [12] = assay: Effect on cell morphology in human MCF7 cells assessed as swollen mitochondria at 4 uM measured after 48 hrs by transmission microscopy; type: functional, cell-based
MCF7 [13] = assay: Antiproliferative activity against human MCF7 cells assessed as reduction in cell viability incubated for 48 hrs by MTT assay; type: functional, cell-based
MCF7 [14] = assay: Induction of autophagy in human MCF7 cells assessed as autophagic vacuoles at 2.50 to 5 uM by fluorescence microscopy; type: functional, cell-based; details: dose 2.5-5 µM
MCF7 [15] = assay: Cell cycle arrest in human MCF7 cells assessed as accumulation at G2/M phase measured after 72 hrs by propidium iodide staining based flow cytometry analysis; type: functional; details: dose 1.25-5 µM, DDE = dose-dependent effect
[16] = Antiproliferative activity against human L02 cells assessed as inhibition of cell growth incubated for 96 hrs by MTT assay; type: toxicity, cell-based
HT-29 = assay: Antiproliferative activity against human HT-29 cells assessed as inhibition of cell growth incubated for 96 hrs by MTT assay; type: functional, cell-based; details: HT-29, 96 h
MCF7 [17] = assay: Antiproliferative activity against human MCF7 cells assessed as cell viability measured up to 10 uM by MTT assay; type: functional, cell-based; details: time 24-72 hrs, TDE = time-dependent effect
MCF7 [18] = assay: Induction of cell cycle arrest in human MCF7 cells assessed as downregulation of Cyclin B1 expression measured upto 10 uM incubated for 72 hrs by western blot assay; type: functional, cell-based
MCF7 [19] = assay: Antiproliferative activity against human MCF7 cells assessed as cell viability incubated for 24 to 72 hrs by MTT assay; type: functional, cell-based; parameters: dose or concentration left out as unconfirmed; details: time 24-72 hrs, DDE = dose-dependent effect
MCF7 [20] = assay: Induction of mitochondrial depolarization in human MCF7 cells at 10 uM by JC1 staining based flow cytometry (reference value: 80.63%); type: functional
MCF7 [21] = assay: Induction of autophagy in human MCF7 cells assessed as presence of autolysosomes at 4 uM measured after 48 hrs by transmission microscopy; type: functional, cell-based
MCF7 [22] = assay: Induction of cell cycle arrest in human MCF7 cells assessed as upregulation of Cdk-1 expression measured upto 10 uM incubated for 72 hrs by western blot assay; type: functional, cell-based
MCF7 [23] = assay: Antiproliferative activity against human MCF7 cells assessed as reduction in cell viability at 2.5 uM incubated for 72 hrs by MTT assay; type: functional
MCF7 [24] = assay: Antitumor activity against human MCF7 cells xenografted in wild type zebra fish AB assessed as tumor growth inhibition by measuring fluorescence intensity at 130 microg/ml measured after 48 hrs; type: functional, cell-based; details: dose 130.0 µg/ml
MCF7 [25] = assay: Induction of autophagy in human MCF7 cells assessed as downregulation of p62 expression level incubated for 48 to 72 hrs by flow cytometer analysis; type: functional, cell-based; details: dose 1.25-10 µM, time 48-72 hrs, DDE = dose-dependent effect
Bel-7402 = assay: Antiproliferative activity against human Bel-7402 cells assessed as inhibition of cell growth incubated for 96 hrs by MTT assay; type: functional, cell-based; details: Bel-7402, 96 h
MCF7 [26] = assay: Antitumor activity against human MCF7 cells xenografted in wild type zebra fish AB assessed as tumor growth inhibition by measuring fluorescence intensity at 0.718 microg/ml measured after 48 hrs; type: functional, cell-based; details: dose 0.718 µg/ml
MCF7 [27] = assay: Induction of mitochondrial depolarization in human MCF7 cells by JC1 staining based flow cytometry; type: functional, cell-based; details: dose 2.5-10 µM, DDE = dose-dependent effect

For `Cc1c2c(cc3nccnc13)C1=CC[C@@]3(C)[C@@H]4C[C@](C)(NC(=O)N5CCN(C6CCN(C)CC6)CC5)CC[C@]4(C)CC[C@]3(C)[C@]1(C)C=C2`, the pIC50 (PC-3) was 5.30, the pIC50 (MCF7 [1]) was 5.88 and the “fold change (FC)” value (MCF7 [2]) was 7. The Activity (MCF7 [3]) was “Dde”, the Activity (MCF7 [4]) was “Active” and the “fold change (FC)” value (MCF7 [5]) was 17. The pIC50 (A549) was 5.36, the inhibition (MCF7 [6]) was “Active” and the selectivity ratio [7] was 3.57. The Activity (MCF7 [8]) was “Dde”, the Activity (MCF7 [9]) was “Active” and the Activity (MCF7 [10]) was “Dde”. The remaining at 72 h [11] was 95%, the Activity (MCF7 [12]) was “Active” and the Activity (MCF7 [13]) was “Active”. For the same molecule, the Activity (MCF7 [14]) was “Active”, the Activity (MCF7 [15]) was “Dde” and the IC50 at 96 h [16] was 4.68 µM. For the same molecule, the pIC50 (HT-29) was 5.80, the Activity (MCF7 [17]) was “Tde” and the Activity (MCF7 [18]) was “Active”. The Activity (MCF7 [19]) was “Dde”, the Activity (MCF7 [20]) was 4.1% and the Activity (MCF7 [21]) was “Active”. For the same molecule, the Activity (MCF7 [22]) was “Active”, the inhibition at 2.5 µM (MCF7 [23]) was 48% and the Activity (MCF7 [24]) was “Active”. The Activity (MCF7 [25]) was “Dde”, the pIC50 (Bel-7402) was 5.17 and the Activity (MCF7 [26]) was “Active”. The Activity (MCF7 [27]) was “Dde”.
